Melting point data for 45 compounds are collected here from patent US9051342B2 (priority 2004, dated 2015).

Values joined by “and” are separate entries in the source; they are usually repeats but may differ in a detail not shown here. Identical values can stand only once. Counter-ions that a name gives are not always drawn.

The term melting point denotes the temperature of the solid-liquid transition. `CC(C)c1ccc(-n2cnc(-c3cccc(C(=O)O)c3)c2)cc1` displayed a melting point of 225 to 226 °C.

Consider `COc1cccc(-n2cnc(-c3ccc(C(=O)O)cc3)n2)c1`, for which the melting point lay in the range of 203 to 205 °C.

`O=C(O)c1cccc(-c2ccn(-c3ccc(C(F)(F)F)cc3)c2)c1` (as salt: sodium) [Compound 154, 3-[1-(4-Trifluoromethyl-phenyl)-]-1H-pyrrol-3-yl]-benzoic acid sodium salt] showed a melting point of 224 to 226 °C.

Turning to `CC(C)c1ccc(-c2cn(-c3cccc(C(=O)O)c3)c(N)n2)cc1` [Compound 1, 3-[2-amino-4-(4-isopropylphenyl)-1H-imidazol-1-yl]benzoic acid], the melting point was 279 to 282 °C (dec.).

`CC(C)c1ccc(-c2ccn(-c3cccc(C(=O)O)c3)n2)cc1` [Compound 5, 3-[3-(4-Isopropyl-phenyl)-pyrazol-1-yl]-benzoic acid] gave a melting point of 215 to 216 °C.

As for `CC(C)c1ccc(-n2ccc(-c3cccc(C(=O)O)c3)c2)cc1` [Compound 6, 3-[1-(4-Isopropyl-phenyl)-1H-pyrrol-3-yl]-benzoic acid], the melting point lay within 210 to 215 °C.

On to `O=C(O)c1cccc(-n2cnc(-c3ccccc3)n2)c1` [Compound 8, 3-(3-Phenyl-[1,2,4]triazol-1-yl)-benzoic acid], for which the melting point lay within 268 to 271 °C.

As to `O=C(O)c1cccc(-n2cnc(-c3ccc(O)cc3)n2)c1` [Compound 9, 3-[3-(4-Hydroxy-phenyl)-[1,2,4]triazol-1-yl]-benzoic acid], the melting point is 307 to 311 °C.

The compound `O=C(O)c1cccc(-n2cnc(-c3ccc(OCc4ccccc4)cc3)n2)c1` [Compound 10, 3-[3-(4-Benzyloxy-phenyl)-[1,2,4]triazol-1-yl]-benzoic acid] displayed a melting point of 259 to 261 °C.

`COc1ccc(-c2ncn(-c3cccc(C(=O)O)c3)n2)cc1` [Compound 11, 3-[3-(4-Methoxy-phenyl)-[1,2,4]triazol-1-yl]-benzoic acid] showed a melting point of 268 to 270 °C.

`COc1ccc(-n2cnc(-c3cccc(C(=O)O)c3)n2)cc1` [Compound 12, 3-[1-(4-Methoxy-phenyl)-1H-[1,2,4]triazol-3-yl]-benzoic acid] came in with a melting point of 230 to 232 °C.

The compound `O=C(O)c1cccc(-c2ncn(-c3ccc(F)cc3)n2)c1` [Compound 13, 3-[1-(4-Fluoro-phenyl)-1H-[1,2,4]triazol-3-yl]-benzoic acid] registered a melting point above 310 °C.

`Cc1ccc(-n2cnc(-c3cccc(C(=O)O)c3)n2)cc1` [Compound 14, 3-(1-p-Tolyl-1H-[1,2,4]triazol-3-yl)-benzoic acid] came in with a melting point of 263 to 265 °C.

For `CC(C)c1ccc(-n2cnc(-c3cccc(C(=O)O)c3)n2)cc1` [Compound 15, 3-[1-(4-Isopropyl-phenyl)-1H-[1,2,4]triazol-3-yl]-benzoic acid], the melting point lay within 173 to 175 °C.

As to `O=C(O)c1cccc(-c2ncn(-c3ccc(F)cc3F)n2)c1` [Compound 16, 3-[1-(2,4-Difluoro-phenyl)-1H-[1,2,4]triazol-3-yl]-benzoic acid], the melting point was 290 to 291 °C and 290 to 292 °C.

As for `O=C(O)c1cccc(-c2ncn(-c3ccccc3F)n2)c1` [Compound 17, 3-[1-(2-Fluoro-phenyl)-1H-[1,2,4]triazol-3-yl]-benzoic acid], the melting point is 239 to 241 °C.

Turning to `O=C(O)c1cccc(-c2ncn(-c3ccc(C(F)(F)F)cc3)n2)c1` [Compound 18, 3-[1-(4-Trifluoromethyl-phenyl)-1H-[1,2,4]triazol-3-yl]-benzoic acid], the melting point was in the range of 141 to 143 °C.

Turning to `O=C(O)c1cccc(-c2ncn(-c3ccc(OC(F)(F)F)cc3)n2)c1` [Compound 19, 3-[1-(4-Trifluoromethoxy-phenyl)-1H-[1,2,4]triazol-3-yl]-benzoic acid], the melting point lay within 219 to 221 °C.

In turn, `O=C(O)c1cccc(-c2ncn(-c3cc(C(F)(F)F)cc(C(F)(F)F)c3)n2)c1` [Compound 20, 3-[1-(3,5-Bis-trifluoromethyl-phenyl)-1H-[1,2,4]triazol-3-yl]-benzoic acid] gave a melting point of 271 to 273 °C.

In the case of `CCc1ccccc1-n1cnc(-c2cccc(C(=O)O)c2)n1` [Compound 21, 3-[1-(2-Ethyl-phenyl)-1H-[1,2,4]triazol-3-yl]-benzoic acid], the melting point lay in the range of 176 to 178 °C.

Compound `O=C(O)c1cccc(-c2ncn(-c3ccc(Br)cc3)n2)c1` [Compound 22, 3-[1-(4-Bromo-phenyl)-1H-[1,2,4]triazol-3-yl]-benzoic acid] had a melting point above 310 °C.

`O=C(O)c1cccc(-c2ncn(-c3ccc([N+](=O)[O-])cc3)n2)c1` [Compound 23, 3-[1-(4-Nitro-phenyl)-1H-[1,2,4]triazol-3-yl]-benzoic acid] came in with a melting point of 284 to 286 °C.

Take `O=C(O)c1cccc(-c2ncn(-c3ccc(-c4ccccc4)cc3)n2)c1` [Compound 24, 3-(1-Biphenyl-4-yl-1H-[1,2,4]triazol-3-yl)-benzoic acid]: the melting point was in the range of 263 to 265 °C.

`O=C(O)c1cccc(-c2ncn(-c3ccc(F)c(Cl)c3)n2)c1` [Compound 25, 3-[1-(3-Chloro-4-fluoro-phenyl)-1H-[1,2,4]triazol-3-yl]-benzoic acid] registered a melting point of 270 to 272 °C.

As to `O=C(O)c1cccc(-c2ncn(-c3ccc(-c4cc5ccccc5o4)cc3)n2)c1` [Compound 26, 3-[1-(4-Benzofuran-2-yl-phenyl)-1H-[1,2,4]triazol-3-yl]-benzoic acid], the melting point lay within 293 to 295 °C.

`COc1ccc(-c2ccc(-n3cnc(-c4cccc(C(=O)O)c4)n3)cc2)cc1` [Compound 27, 3-[1-(4′-Methoxy-biphenyl-4-yl)-1H-[1,2,4]triazol-3-yl]-benzoic acid] came in with a melting point of 243 to 246 °C.

`CC(C)c1ccc(-c2ccc(-n3cnc(-c4cccc(C(=O)O)c4)n3)cc2)cc1` [Compound 28, 3-[1-(4′-Isopropyl-biphenyl-4-yl)-1H-[1,2,4]triazol-3-yl]-benzoic acid] showed a melting point of 225 to 228 °C.

Take `O=C(O)c1cccc(-c2ncn(-c3cccc(F)c3)n2)c1` [Compound 29, 3-[1-(3-Fluoro-phenyl)-1H-[1,2,4]triazol-3-yl]-benzoic acid]: the melting point was 266 to 268 °C.

As to `O=C(O)c1cccc(-c2ncn(-c3ccccc3Br)n2)c1` [Compound 30, 3-[1-(2-Bromo-phenyl)-1H-[1,2,4]triazol-3-yl]-benzoic acid], the melting point is 245 to 247 °C.

Regarding `O=C(O)c1ccc(-n2cnc(-c3cccc(C(=O)O)c3)n2)cc1` [Compound 31, 4-[3-(3-Carboxy-phenyl)-[1,2,4]triazol-1-yl]-benzoic acid], the melting point was above 300 °C.

In turn, `O=C(O)c1cccc(-c2ncn(-c3ccc(-c4ccc(F)cc4)cc3)n2)c1` [Compound 32, 3-[1-(4′-Fluoro-biphenyl-4-yl)-1H-[1,2,4]triazol-3-yl]-benzoic acid] yielded a melting point of 272 to 275 °C.

`Cc1nc(-c2cccc(C(=O)O)c2)nn1-c1ccc(Br)cc1` [Compound 33, 3-[1-(4-Bromo-phenyl)-5-methyl-1H-[1,2,4]triazol-3-yl]-benzoic acid]: the melting point lay in the range of 295 to 298 °C.

As for `Cc1nc(-c2cccc(C(=O)O)c2)nn1-c1cccc(F)c1` [Compound 34, 3-[1-(3-Fluoro-phenyl)-5-methyl-1H-[1,2,4]triazol-3-yl]-benzoic acid], the melting point was 236 to 238 °C.

`O=C(O)c1cccc(-c2ncn(-c3cccc(Br)c3)n2)c1` [Compound 35, 3-[1-(3-Bromo-phenyl)-1H-[1,2,4]triazol-3-yl]-benzoic acid] came in with a melting point of 253 to 255 °C.

In turn, `O=C(O)c1cccc(-c2ncn(-c3ccccn3)n2)c1` [Compound 36, 3-(1-Pyridin-2-yl-1H-[1,2,4]triazol-3-yl)-benzoic acid] came in with a melting point of 241 to 244 °C.

The compound `O=C(O)c1cccc(-c2ncn(-c3ccccc3)n2)c1` [Compound 37, 3-(1-Phenyl-1H-[1,2,4]triazol-3-yl)-benzoic acid] showed a melting point of 257 to 259 °C.

Consider `Cc1ccc(-n2cnc(-c3cccc(C(=O)O)c3)n2)cc1Cl` [Compound 38, 3-[1-(3-Chloro-4-methyl-phenyl)-1H-[1,2,4]triazol-3-yl]-benzoic acid], for which the melting point fell in the range of 269 to 272 °C.

`Cc1cccc(-n2cnc(-c3cccc(C(=O)O)c3)n2)c1` [Compound 39, 3-(1-m-Tolyl-1H-[1,2,4]triazol-3-yl)-benzoic acid] gave a melting point of 223 to 225 °C.

`Cc1ccccc1-n1cnc(-c2cccc(C(=O)O)c2)n1` [Compound 40, 3-(1-o-Tolyl-1H-[1,2,4]triazol-3-yl)-benzoic acid] yielded a melting point of 209 to 211 °C.

In turn, `Cc1ccccc1-n1nc(-c2cccc(C(=O)O)c2)[nH]c1=O` [Compound 41, 3-(5-Oxo-1-o-tolyl-4,5-dihydro-1H-[1,2,4]triazol-3-yl)-benzoic acid] gave a melting point above 310 °C.

`O=C(O)c1cccc(-c2nn(-c3cccc(F)c3)c(=O)[nH]2)c1` [Compound 42, 3-[1-(3-Fluoro-phenyl)-5-oxo-4,5-dihydro-1H-[1,2,4]triazol-3-yl]-benzoic acid] came in with a melting point above 310 °C.

`O=C(O)c1cccc(-c2ncn(-c3ccc(N4CCCC4=O)cc3)n2)c1` [Compound 43, 3-{1-[4-(2-Oxo-pyrrolidin-1-yl)-phenyl]-1H-[1,2,4]triazol-3-yl}-benzoic acid]: the melting point lay in the range of 270 to 273 °C.

Compound `O=C(O)c1cccc(-c2ncn(-c3ccc(N4CCC4=O)cc3)n2)c1` [Compound 44, 3-{1-[4-(2-Oxo-azetidin-1-yl)-phenyl]-1H-[1,2,4]triazol-3-yl}-benzoic acid] displayed a melting point of 295 to 297 °C.

Turning to `COc1ccc(-c2cnn(-c3cccc(C(=O)O)c3)c2)cc1` [Compound 47, 3-[4-(4-Methoxy-phenyl)-pyrazol-1-yl]-benzoic acid], the melting point fell in the range of 238 to 239 °C.

`Cc1ccc(-c2cnn(-c3cccc(C(=O)O)c3)c2)cc1` [Compound 48, 3-(4-p-Tolyl-pyrazol-1-yl)-benzoic acid] showed a melting point of 208 to 209 °C.
